IC50 data for eleven compounds are collected here from patent publication US9045445B2, “Glycine transporter-1 inhibitors, methods of making them, and uses thereof” (Albany Molecular Research, Inc., priority 2010, dated 2015).

The IC50 is the concentration at which inhibition is half-maximal.

Structures can show the parent of a compound that is named as a salt.

For this experiment, the target named is T1, glycine transporter-1 (GlyT-1) (Homo sapiens, UniProt P48067).
T1 construct: JAR cells (ATCC#HTB-144), which endogenously express GlyT-1; host or cells: JAR human choriocarcinoma cells
T1 sequence (P48067 1-706): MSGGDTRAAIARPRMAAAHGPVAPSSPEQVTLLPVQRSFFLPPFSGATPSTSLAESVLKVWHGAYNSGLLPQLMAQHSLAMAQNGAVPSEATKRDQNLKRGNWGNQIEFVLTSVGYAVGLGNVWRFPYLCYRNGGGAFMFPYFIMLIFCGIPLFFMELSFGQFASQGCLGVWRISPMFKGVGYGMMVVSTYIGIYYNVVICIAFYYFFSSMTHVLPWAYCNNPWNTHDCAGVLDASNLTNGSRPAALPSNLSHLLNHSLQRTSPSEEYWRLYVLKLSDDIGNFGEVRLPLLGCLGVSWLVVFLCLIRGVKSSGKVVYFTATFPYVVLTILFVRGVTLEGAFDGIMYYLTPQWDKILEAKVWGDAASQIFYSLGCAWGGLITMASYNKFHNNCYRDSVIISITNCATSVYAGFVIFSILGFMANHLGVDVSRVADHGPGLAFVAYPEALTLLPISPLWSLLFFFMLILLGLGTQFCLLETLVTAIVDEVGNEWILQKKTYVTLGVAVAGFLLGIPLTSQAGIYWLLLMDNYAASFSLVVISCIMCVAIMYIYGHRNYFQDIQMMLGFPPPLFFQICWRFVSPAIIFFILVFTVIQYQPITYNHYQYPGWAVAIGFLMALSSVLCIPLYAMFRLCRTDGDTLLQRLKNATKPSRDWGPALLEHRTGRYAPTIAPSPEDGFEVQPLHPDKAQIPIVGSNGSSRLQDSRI
The experiment can be described thus: [14C]glycine uptake assay in JAR cells endogenously expressing GlyT-1 (scintillation proximity). In kind it is cell-based. The settings on record: JAR cells, [14C]glycine 5 μM, 3 hour incubation; read-out: GlyT-1 IC50. As to the method:
The inhibitory activity of compounds of the invention against the glycine transporter-1 (GlyT-1) can be determined by the following scintillation proximity assay. The potency of each compound was assessed in inhibiting the uptake of radiolabeled glycine ([^14C]glycine) using the human choriocarcinoma cell line, JAR cells (ATCC#HTB-144), which endogenously express GlyT-1. In brief, 50,000 JARS cells were plated per well of tissue culture treated 96-well Cytostar-T plate (PerkinElmer) in RPMI media supplemented with 10% heat inactivated FBS and allowed to attach overnight at 37° C. and 5% CO2. Compounds were serially diluted 3-fold in DMSO generating a nine (9) data point response curve for each compound. Two replicates were performed per determination. The compounds were then diluted into Uptake Buffer (10 mM Hepes, 120 mM NaCl, 2 mM KCl, 1 mM CaCl2 and 1 mM MgCl2, 5 mM Alanine, pH 7.4) with a final DMSO concentration of 0.75% (v/v). Following the overnight incubation, the media was replaced with Uptake Buffer in the presence or absence of diluted compound and pre-incubated at room temperature for 10 minutes prior to the addition of [^14C]glycine at a final concentration of 5 μM. Following a 3 hour incubation period at 37° C. and 5% CO2, the plates were sealed and placed at room temperature in the dark for 15 minutes prior to quantification of incorporated radioactivity using a MicroBeta Trilux scintillation plate reader (PerkinElmer). Data were fit into a four-parameter model to determine the inhibitor concentration at half-maximal response (IC50). The assay window was established by control wells incubated with [^14C]glycine in the presence or absence of 10 mM non-labeled glycine. A dose response curve for a synthesized reference standard was generated on every plate as a positive control.
On the technique in general: Scintillation proximity formats need no separation of bound from free tracer.
In the case of `CCS(=O)(=O)N1CCN(C2(CNC(=O)c3c(F)ccc(C(F)(F)F)c3F)CCC(F)(F)CC2)CC1` [compound 211, N-((1-(4-(Ethylsulfonyl)piperazin-1-yl)-4,4-difluorocyclohexyl)methyl)-2,6-difluoro-3-(trifluoromethyl) benzamide Hydrochloride], the IC50 stood at 2780 nM.
The same measure for `Cn1cnc(S(=O)(=O)N2CCN(C3(CNC(=O)c4ccc(C(F)(F)F)cc4Cl)CCC(F)(F)CC3)CC2)c1` [compound 171, N-((4,4-Difluoro-1-(4-(1-methyl-1H-imidazol-4-ylsulfonyl)piperazin-1-yl)cyclohexyl)methyl)-2-chloro-4-(trifluoromethyl)benzamide Hydrochloride]: 2 nM.
The same measure for `CCCS(=O)(=O)N1CCN(C2(C(C)NC(=O)c3c(F)cccc3F)CCC(F)(F)CC2)CC1` (centres unmarked) [compound 196, N-(1-(4,4-Difluoro-1-(4-(propylsulfonyl)piperazin-1-yl)cyclohexyl)ethyl)-2,6-difluorobenzamide Hydrochloride]: 3780 nM; for `CCS(=O)(=O)N1CCN(C2(CNC(=O)c3c(Cl)ccc(C(F)(F)F)c3Cl)CCC(F)(F)CC2)CC1` [compound 215, 2,6-Dichloro-N-((1-(4-(ethylsulfonyl)piperazin-1-yl)-4,4-difluorocyclohexyl)methyl)-3-(trifluoromethyl) benzamide Hydrochloride]: 2460 nM.
`CCS(=O)(=O)N1CCN(C2(CNC(=O)c3ccc(C(F)(F)F)cc3C(F)(F)F)CCC(F)(F)CC2)C(C)C1` (racemic) [compound 218, (±)-N-((1-(4-(Ethylsulfonyl)-2-methylpiperazin-1-yl)-4,4-difluorocyclohexyl)methyl)-2,4-bis(trifluoromethyl) benzamide Hydrochloride]: the half-inhibitory concentration (IC50) was determined as 86 nM.
For `Cn1cnc(S(=O)(=O)N2CCN(C3(CNC(=O)c4ccc(F)cc4C(F)(F)F)CCC(F)(F)CC3)CC2)c1` [compound 169, N-((4,4-Difluoro-1-(4-(1-methyl-1H-imidazol-4-ylsulfonyl)piperazin-1-yl)cyclohexyl)methyl)-4-fluoro-2-(trifluoromethyl)benzamide Hydrochloride], the IC50 amounted to 2 nM.
In the case of `CCS(=O)(=O)N1CCN(C2(CNC(=O)c3cc(F)c(Cl)cc3Cl)CCC(F)(F)CC2)CC1` [compound 212, 2,4-Dichloro-N-((1-(4-(ethylsulfonyl)piperazin-1-yl)-4,4-difluorocyclohexyl)methyl)-5-fluorobenzamide Hydrochloride], the IC50 was 209 nM.
The figure for `CCCS(=O)(=O)N1CCN(C2(CNC(=O)c3ccccc3-c3ccccc3)CCCCC2)CC1` [compound 34, N-((1-(4-(Propylsulfonyl)piperazin-1-yl)cyclohexyl)methyl) biphenyl-2-carboxamide Hydrochloride] is 646 nM; for `Cn1cnc(S(=O)(=O)N2CCN(C3(CNC(=O)c4c(Cl)cccc4Cl)CCC(F)(F)CC3)CC2)c1` [compound 174, 2,6-Dichloro-N-((4,4-difluoro-1-(4-(1-methyl-1H-imidazol-4-ylsulfonyl)piperazin-1-yl)cyclohexyl)methyl) benzamide Hydrochloride] it is 5 nM; for `CCCS(=O)(=O)N1CCN(C2(CNC(=O)c3ccc(Cl)cc3F)CCC(F)(F)CC2)CC1` [compound 143, 4-Chloro-N-((4,4-difluoro-l-(4-(propylsulfonyl)piperazin-1-yl)cyclohexyl)methyl)-2-fluorobenzamide Hydrochloride] it is 137 nM.
Consider `Cc1cc(F)ccc1C(=O)NCC1(N2CCN(S(=O)(=O)c3cn(C)cn3)CC2)CCC(F)(F)CC1` [compound 184, N-((4,4-Difluoro-1-(4-(1-methyl-1H-imidazol-4-ylsulfonyl)piperazin-1-yl)cyclohexyl)methyl)-4-fluoro-2-methylbenzamide Hydrochloride], for which the half-maximal inhibitory concentration (IC50) worked out at 13 nM.
